Measured values: patent US20230257396A1, “MACROCYCLES AND THEIR USE” (BLOSSOMHILL THERAPEUTICS, INC., priority 2020, published 2023)

Legend:
Assay in all cases: KINOMEscan kinase binding assay (Eurofins/DiscoveRx), % Ctrl
kinases [1] = biological target: T1, kinases (Homo sapiens, UniProt P36888, R834Q)
T1 construct: purchased Eurofins/DiscoveRx; host or cells: E. coli BL21-derived host (T7 phage display) for most kinases; HEK-293 for the rest
T1 sequence (P36888 27-993 R834Q): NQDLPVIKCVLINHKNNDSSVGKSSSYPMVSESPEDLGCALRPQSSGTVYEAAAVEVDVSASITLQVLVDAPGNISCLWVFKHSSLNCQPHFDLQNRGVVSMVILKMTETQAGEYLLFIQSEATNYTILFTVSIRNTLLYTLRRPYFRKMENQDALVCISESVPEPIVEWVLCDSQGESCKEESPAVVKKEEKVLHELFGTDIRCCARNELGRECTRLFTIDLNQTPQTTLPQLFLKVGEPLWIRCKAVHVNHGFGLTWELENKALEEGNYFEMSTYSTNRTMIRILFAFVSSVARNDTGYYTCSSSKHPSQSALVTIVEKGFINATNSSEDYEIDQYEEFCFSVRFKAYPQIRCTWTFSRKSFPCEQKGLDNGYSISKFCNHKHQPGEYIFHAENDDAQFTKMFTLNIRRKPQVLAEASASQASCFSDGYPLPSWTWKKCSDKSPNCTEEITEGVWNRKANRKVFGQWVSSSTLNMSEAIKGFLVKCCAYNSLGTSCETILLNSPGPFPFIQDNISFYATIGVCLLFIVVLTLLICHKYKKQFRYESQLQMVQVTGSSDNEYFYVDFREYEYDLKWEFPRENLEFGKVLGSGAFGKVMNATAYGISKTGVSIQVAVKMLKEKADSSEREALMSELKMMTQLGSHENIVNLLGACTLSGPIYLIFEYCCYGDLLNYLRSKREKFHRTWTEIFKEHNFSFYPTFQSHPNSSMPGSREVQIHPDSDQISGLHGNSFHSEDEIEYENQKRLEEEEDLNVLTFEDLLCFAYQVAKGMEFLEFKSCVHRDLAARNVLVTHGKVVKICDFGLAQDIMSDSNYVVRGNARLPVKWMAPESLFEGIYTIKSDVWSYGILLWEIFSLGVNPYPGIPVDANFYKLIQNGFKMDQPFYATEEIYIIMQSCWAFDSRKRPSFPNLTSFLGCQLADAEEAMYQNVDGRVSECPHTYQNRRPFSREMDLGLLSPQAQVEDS
How it was run: (§1)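 Competition binding, 1 h RT: phage-tagged or HEK-293-expressed DNA-tagged kinase + immobilized ligand + compound. Eluate kinase by qPCR. % Ctrl = (test − positive ctrl)/(negative ctrl − positive ctrl) × 100; lower means stronger binding.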

kinases [2] = biological target: T2, kinases (Homo sapiens, UniProt P00519)
T2 construct: purchased Eurofins/DiscoveRx; host or cells: E. coli BL21-derived host (T7 phage display) for most kinases; HEK-293 for the rest
How it was run: as §1

kinases [3] = biological target: T3, kinases (Homo sapiens, UniProt P07949, M918T)
T3 construct: purchased Eurofins/DiscoveRx; host or cells: E. coli BL21-derived host (T7 phage display) for most kinases; HEK-293 for the rest
How it was run: as §1

kinases [4] = biological target: T4, kinases (Homo sapiens, UniProt P16234)
T4 construct: purchased Eurofins/DiscoveRx; host or cells: E. coli BL21-derived host (T7 phage display) for most kinases; HEK-293 for the rest
How it was run: as §1

kinases [5] = biological target: T5, kinases (Homo sapiens, UniProt P00519, F317L)
T5 construct: purchased Eurofins/DiscoveRx; host or cells: E. coli BL21-derived host (T7 phage display) for most kinases; HEK-293 for the rest
How it was run: as §1

kinases [6] = biological target: T6, kinases (Homo sapiens, UniProt P00519, H396P)
T6 construct: purchased Eurofins/DiscoveRx; host or cells: E. coli BL21-derived host (T7 phage display) for most kinases; HEK-293 for the rest
How it was run: as §1

kinases [7] = biological target: T7, kinases (Homo sapiens, UniProt P10721, L576P)
T7 construct: purchased Eurofins/DiscoveRx; host or cells: E. coli BL21-derived host (T7 phage display) for most kinases; HEK-293 for the rest
How it was run: as §1

kinases [8] = biological target: T8, kinases (Homo sapiens, UniProt P00533, G719C)
T8 construct: purchased Eurofins/DiscoveRx; host or cells: E. coli BL21-derived host (T7 phage display) for most kinases; HEK-293 for the rest
How it was run: as §1

[9] = target ABL1-nonphosphorylated; 1 μM
[10] = target ABL1-phosphorylated; 1 μM
[11] = target ABL1(F317L)-nonphosphorylated; 1 μM
[12] = target ABL1(F317L)-phosphorylated; 1 μM
[13] = target ABL1(H396P)-nonphosphorylated; 1 μM
[14] = target ABL1(H396P)-phosphorylated; 1 μM
[15] = 1 μM; target ABL1-nonphosphorylated
[16] = 1 μM; target ABL1-phosphorylated
[17] = 1 μM; target ABL1(F317L)-nonphosphorylated
[18] = 1 μM; target ABL1(F317L)-phosphorylated
[19] = 1 μM; target ABL1(H396P)-nonphosphorylated
[20] = 1 μM; target ABL1(H396P)-phosphorylated
[21] = 1 μM; ABL1(F317L)-nonphosphorylated
[22] = 1 μM; ABL1(F317L)-phosphorylated
[23] = 1 μM; ABL1(H396P)-nonphosphorylated
[24] = 1 μM; ABL1(H396P)-phosphorylated

T4 sequence (P16234 24-1089): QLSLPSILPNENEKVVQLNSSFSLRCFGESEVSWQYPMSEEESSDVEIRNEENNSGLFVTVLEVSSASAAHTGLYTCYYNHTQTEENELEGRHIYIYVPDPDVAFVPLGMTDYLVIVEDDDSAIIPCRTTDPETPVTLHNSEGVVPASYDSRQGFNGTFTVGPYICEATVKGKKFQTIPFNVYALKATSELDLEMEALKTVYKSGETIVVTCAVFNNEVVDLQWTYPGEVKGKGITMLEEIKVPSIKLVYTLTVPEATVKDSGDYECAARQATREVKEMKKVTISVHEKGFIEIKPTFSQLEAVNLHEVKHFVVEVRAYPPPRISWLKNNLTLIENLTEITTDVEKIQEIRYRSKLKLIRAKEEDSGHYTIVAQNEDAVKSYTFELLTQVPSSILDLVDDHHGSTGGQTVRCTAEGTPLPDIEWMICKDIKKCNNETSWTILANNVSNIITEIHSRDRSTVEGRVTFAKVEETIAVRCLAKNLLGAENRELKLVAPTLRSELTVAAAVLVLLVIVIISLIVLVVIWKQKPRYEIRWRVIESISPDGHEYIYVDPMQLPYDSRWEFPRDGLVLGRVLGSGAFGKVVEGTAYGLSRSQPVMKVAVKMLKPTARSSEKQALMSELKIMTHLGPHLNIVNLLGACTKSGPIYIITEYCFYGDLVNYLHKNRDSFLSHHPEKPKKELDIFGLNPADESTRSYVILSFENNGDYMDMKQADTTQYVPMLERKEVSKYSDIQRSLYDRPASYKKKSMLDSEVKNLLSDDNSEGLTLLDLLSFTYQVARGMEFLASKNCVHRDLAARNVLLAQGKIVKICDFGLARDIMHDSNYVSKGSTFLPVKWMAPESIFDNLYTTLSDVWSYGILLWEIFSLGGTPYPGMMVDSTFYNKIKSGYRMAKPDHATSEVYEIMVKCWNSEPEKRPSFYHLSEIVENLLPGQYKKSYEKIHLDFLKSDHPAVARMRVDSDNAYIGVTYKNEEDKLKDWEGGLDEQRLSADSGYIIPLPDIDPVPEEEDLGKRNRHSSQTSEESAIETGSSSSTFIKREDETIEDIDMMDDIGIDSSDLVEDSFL
T3 sequence (P07949 29-1114 M918T): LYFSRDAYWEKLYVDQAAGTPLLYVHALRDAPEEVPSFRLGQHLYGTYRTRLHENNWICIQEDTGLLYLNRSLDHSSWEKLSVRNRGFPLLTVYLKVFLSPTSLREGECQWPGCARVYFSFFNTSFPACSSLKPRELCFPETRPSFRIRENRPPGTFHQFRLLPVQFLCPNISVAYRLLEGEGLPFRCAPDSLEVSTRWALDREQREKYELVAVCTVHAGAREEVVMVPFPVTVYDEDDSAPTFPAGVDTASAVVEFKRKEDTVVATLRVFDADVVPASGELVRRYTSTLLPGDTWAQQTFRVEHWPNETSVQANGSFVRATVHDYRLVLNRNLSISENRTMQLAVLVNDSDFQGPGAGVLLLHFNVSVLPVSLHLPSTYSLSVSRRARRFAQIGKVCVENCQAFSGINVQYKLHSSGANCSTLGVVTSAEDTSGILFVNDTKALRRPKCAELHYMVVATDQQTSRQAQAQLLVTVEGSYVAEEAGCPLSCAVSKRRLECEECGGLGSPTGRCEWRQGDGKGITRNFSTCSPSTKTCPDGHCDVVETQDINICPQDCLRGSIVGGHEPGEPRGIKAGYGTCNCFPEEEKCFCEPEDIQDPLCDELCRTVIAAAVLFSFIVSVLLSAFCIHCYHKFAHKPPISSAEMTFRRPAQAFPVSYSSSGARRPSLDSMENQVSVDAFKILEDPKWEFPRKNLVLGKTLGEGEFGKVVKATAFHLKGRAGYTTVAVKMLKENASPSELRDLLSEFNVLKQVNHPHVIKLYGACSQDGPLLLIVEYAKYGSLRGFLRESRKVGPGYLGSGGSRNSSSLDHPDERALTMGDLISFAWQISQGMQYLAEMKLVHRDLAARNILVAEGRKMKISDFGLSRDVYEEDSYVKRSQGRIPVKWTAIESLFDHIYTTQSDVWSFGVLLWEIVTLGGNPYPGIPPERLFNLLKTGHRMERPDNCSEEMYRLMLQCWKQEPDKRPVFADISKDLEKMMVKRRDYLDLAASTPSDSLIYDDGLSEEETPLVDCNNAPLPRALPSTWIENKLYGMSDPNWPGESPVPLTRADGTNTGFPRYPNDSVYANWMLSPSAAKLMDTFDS
T7 sequence (P10721 26-976 L576P): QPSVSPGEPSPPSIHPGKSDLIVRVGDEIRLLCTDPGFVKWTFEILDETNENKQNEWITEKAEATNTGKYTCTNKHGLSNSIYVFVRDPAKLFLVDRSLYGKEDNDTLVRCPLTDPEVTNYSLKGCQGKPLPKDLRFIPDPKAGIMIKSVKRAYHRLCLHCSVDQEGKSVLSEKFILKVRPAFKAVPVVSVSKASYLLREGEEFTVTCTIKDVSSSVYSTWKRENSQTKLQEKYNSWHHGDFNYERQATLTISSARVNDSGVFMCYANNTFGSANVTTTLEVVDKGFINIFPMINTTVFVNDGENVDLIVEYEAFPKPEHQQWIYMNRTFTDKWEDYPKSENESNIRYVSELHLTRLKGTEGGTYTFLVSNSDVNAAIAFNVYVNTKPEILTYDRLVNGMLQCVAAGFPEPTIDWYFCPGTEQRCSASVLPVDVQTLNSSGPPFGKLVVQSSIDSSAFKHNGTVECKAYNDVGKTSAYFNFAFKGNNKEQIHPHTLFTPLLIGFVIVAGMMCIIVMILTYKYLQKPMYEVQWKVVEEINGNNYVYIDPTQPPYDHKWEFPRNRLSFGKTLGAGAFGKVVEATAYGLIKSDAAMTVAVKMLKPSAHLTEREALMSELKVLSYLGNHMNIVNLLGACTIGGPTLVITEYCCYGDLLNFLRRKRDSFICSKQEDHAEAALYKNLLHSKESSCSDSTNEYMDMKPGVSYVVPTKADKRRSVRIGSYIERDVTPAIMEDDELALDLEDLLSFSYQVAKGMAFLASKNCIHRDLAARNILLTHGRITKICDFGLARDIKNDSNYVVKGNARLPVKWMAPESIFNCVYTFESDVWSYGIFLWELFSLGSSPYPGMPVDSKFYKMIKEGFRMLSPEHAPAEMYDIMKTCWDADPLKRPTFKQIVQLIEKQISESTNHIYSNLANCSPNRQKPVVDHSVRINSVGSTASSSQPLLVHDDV

Cc1cc2c([nH]1)/C=C1\C(=O)Nc3cnc(cc31)-c1cn[nH]c1CNCCN(C)C2=O [Ex. 55, [3a(4)Z]-6,9-dimethyl-9,10,11,12,13,14-hexahydro-17,1-(azenometheno)pyrazolo[4,3-m]dipyrrolo[3,2-f:3′,4′-i][1,4]diazacyclopentadecine-3,8(2,5H)-dione]
% Ctrl, FLT3(R834Q) (kinases [1]; target FLT3(R834Q); 1 μM): 25 % Ctrl
% Ctrl, ABL1-nonphosphorylated (kinases [2]; [9]): 10 % Ctrl
% Ctrl, ABL1-phosphorylated (kinases [2]; [10]): 6 % Ctrl
% Ctrl, RET(M918T) (kinases [3]; target RET(M918T); 1 μM): 0.6 % Ctrl
% Ctrl, PDGFRA (kinases [4]; target PDGFRA; 1 μM): 50 % Ctrl
% Ctrl, ABL1(F317L)-nonphosphorylated (kinases [5]; [11]): 24 % Ctrl
% Ctrl, ABL1(F317L)-phosphorylated (kinases [5]; [12]): 10 % Ctrl
% Ctrl, ABL1(H396P)-nonphosphorylated (kinases [6]; [13]): 0.8 % Ctrl
% Ctrl, ABL1(H396P)-phosphorylated (kinases [6]; [14]): 3.6 % Ctrl
% Ctrl, KIT(L576P) (kinases [7]; target KIT(L576P); 1 μM): 17 % Ctrl
% Ctrl, EGFR(G719C) (kinases [8]; target EGFR(G719C); 1 μM): 68 % Ctrl

CN1CCOc2cc3c(cc2Cl)NC(=O)/C3=C\c2[nH]ccc2C(=O)N(C)CC1 [Ex. 164, [16a(17)Z]-19-chloro-2,5,8-trimethyl-5,6,7,8,9,10-hexahydro-12,14-(ethanediylidene)dipyrrolo[3,2-i:3′,4′-l][1,4,7]oxadiazacyclopentadecine-4,16(1H,15H)-dione]
% Ctrl, FLT3(R834Q) (kinases [1]; 1 μM; target FLT3(R834Q)): 13 % Ctrl
% Ctrl, ABL1-nonphosphorylated (kinases [2]; [15]): 0.1 % Ctrl
% Ctrl, ABL1-phosphorylated (kinases [2]; [16]): 0.1 % Ctrl
% Ctrl, RET(M918T) (kinases [3]; 1 μM; target RET(M918T)): 0 % Ctrl
% Ctrl, PDGFRA (kinases [4]; 1 μM; target PDGFRA): 30 % Ctrl
% Ctrl, ABL1(F317L)-nonphosphorylated (kinases [5]; [17]): 1.6 % Ctrl
% Ctrl, ABL1(F317L)-phosphorylated (kinases [5]; [18]): 1.3 % Ctrl
% Ctrl, ABL1(H396P)-nonphosphorylated (kinases [6]; [19]): 0 % Ctrl
% Ctrl, ABL1(H396P)-phosphorylated (kinases [6]; [20]): 0 % Ctrl
% Ctrl, KIT(L576P) (kinases [7]; 1 μM; target KIT(L576P)): 0.9 % Ctrl
% Ctrl, EGFR(G719C) (kinases [8]; 1 μM; target EGFR(G719C)): 82 % Ctrl

Cc1cc2c([nH]1)/C=C1\C(=O)Nc3ccc(nc31)-c1ccccc1OCCCNC2=O [Ex.22, [3a(4)Z]-6-methyl-9,10,11,12-tetrahydro-1,18-(ethanediylidene)dipyrrolo[3,2-g:3′,4′-j][1,5,12]benzoxadiazacyclopentadecine-3,8(2H,5H)-dione]
% Ctrl, FLT3(R834Q) (kinases [1]; 1 μM; FLT3(R834Q)): 97 % Ctrl
% Ctrl, ABL1-nonphosphorylated (kinases [2]; 1 μM; ABL1-nonphosphorylated): 71 % Ctrl
% Ctrl, ABL1-phosphorylated (kinases [2]; 1 μM; ABL1-phosphorylated): 69 % Ctrl
% Ctrl, RET(M918T) (kinases [3]; 1 μM; RET(M918T)): 92 % Ctrl
% Ctrl, PDGFRA (kinases [4]; 1 μM; PDGFRA): 100 % Ctrl
% Ctrl, ABL1(F317L)-nonphosphorylated (kinases [5]; [21]): 82 % Ctrl
% Ctrl, ABL1(F317L)-phosphorylated (kinases [5]; [22]): 100 % Ctrl
% Ctrl, ABL1(H396P)-nonphosphorylated (kinases [6]; [23]): 90 % Ctrl
% Ctrl, ABL1(H396P)-phosphorylated (kinases [6]; [24]): 77 % Ctrl
% Ctrl, KIT(L576P) (kinases [7]; 1 μM; KIT(L576P)): 84 % Ctrl
% Ctrl, EGFR(G719C) (kinases [8]; 1 μM; EGFR(G719C)): 93 % Ctrl

Cc1cc2c([nH]1)/C=C1\C(=O)Nc3ccc(cc31)-c1cnn(C)c1CNCCN(C)C2=O [Ex. 125, [3a(4)Z]-6,9,14-trimethyl-9,10,11,12,13,14-hexahydro-1,17-(ethanediylidene)pyrazolo[4,3-m]dipyrrolo[3,2-f:3′,4′-i][1,4]diazacyclopentadecine-3,8(2H,5H)-dione]
% Ctrl, FLT3(R834Q) (kinases [1]; 1 μM; FLT3(R834Q)): 0.3 % Ctrl
% Ctrl, ABL1-nonphosphorylated (kinases [2]; 1 μM; ABL1-nonphosphorylated): 0 % Ctrl
% Ctrl, ABL1-phosphorylated (kinases [2]; 1 μM; ABL1-phosphorylated): 0 % Ctrl
% Ctrl, RET(M918T) (kinases [3]; 1 μM; RET(M918T)): 0 % Ctrl
% Ctrl, PDGFRA (kinases [4]; 1 μM; PDGFRA): 7.7 % Ctrl
% Ctrl, ABL1(F317L)-nonphosphorylated (kinases [5]; [21]): 0 % Ctrl
% Ctrl, ABL1(F317L)-phosphorylated (kinases [5]; [22]): 0.55 % Ctrl
% Ctrl, ABL1(H396P)-nonphosphorylated (kinases [6]; [23]): 0 % Ctrl
% Ctrl, ABL1(H396P)-phosphorylated (kinases [6]; [24]): 0.1 % Ctrl
% Ctrl, KIT(L576P) (kinases [7]; 1 μM; KIT(L576P)): 5.9 % Ctrl
% Ctrl, EGFR(G719C) (kinases [8]; 1 μM; EGFR(G719C)): 8 % Ctrl

CN1CCSCCOc2cc3c(cc2Cl)NC(=O)/C3=C\c2[nH]ccc2C1=O [Ex. 153]
% Ctrl, FLT3(R834Q) (kinases [1]; target FLT3(R834Q); 1 μM): 19 % Ctrl
% Ctrl, ABL1-nonphosphorylated (kinases [2]; [9]): 1.3 % Ctrl
% Ctrl, ABL1-phosphorylated (kinases [2]; [10]): 18 % Ctrl
% Ctrl, RET(M918T) (kinases [3]; target RET(M918T); 1 μM): 1 % Ctrl
% Ctrl, PDGFRA (kinases [4]; target PDGFRA; 1 μM): 9.1 % Ctrl
% Ctrl, ABL1(F317L)-nonphosphorylated (kinases [5]; [11]): 4.3 % Ctrl
% Ctrl, ABL1(F317L)-phosphorylated (kinases [5]; [12]): 18 % Ctrl
% Ctrl, ABL1(H396P)-nonphosphorylated (kinases [6]; [13]): 0.8 % Ctrl
% Ctrl, ABL1(H396P)-phosphorylated (kinases [6]; [14]): 16 % Ctrl
% Ctrl, KIT(L576P) (kinases [7]; target KIT(L576P); 1 μM): 0.1 % Ctrl
% Ctrl, EGFR(G719C) (kinases [8]; target EGFR(G719C); 1 μM): 49 % Ctrl

Cc1cc2c([nH]1)/C=C1\C(=O)Nc3cc(Cl)c(cc31)OCCO[C@@H](C(=O)N1CCN(C)CC1)CN(C)C2=O [Ex. 138, [7R,16a(17)Z]-19-chloro-2,5-dimethyl-7-(4-methylpipearazine-1-carbonyl)-6,7,9,10-tetrahydro-1H-12,14-(ethanediylidene)dipyrrolo[3,2-i:3′,4′-l][1,4,7]dioxazacyclopentadecine-4,16(5H,15H)-dione]
% Ctrl, FLT3(R834Q) (kinases [1]; target FLT3(R834Q); 1 μM): 99 % Ctrl
% Ctrl, ABL1-nonphosphorylated (kinases [2]; [9]): 79 % Ctrl
% Ctrl, ABL1-phosphorylated (kinases [2]; [10]): 100 % Ctrl
% Ctrl, RET(M918T) (kinases [3]; target RET(M918T); 1 μM): 72 % Ctrl
% Ctrl, PDGFRA (kinases [4]; target PDGFRA; 1 μM): 75 % Ctrl
% Ctrl, ABL1(F317L)-nonphosphorylated (kinases [5]; [11]): 69 % Ctrl
% Ctrl, ABL1(F317L)-phosphorylated (kinases [5]; [12]): 75 % Ctrl
% Ctrl, ABL1(H396P)-nonphosphorylated (kinases [6]; [13]): 69 % Ctrl
% Ctrl, ABL1(H396P)-phosphorylated (kinases [6]; [14]): 82 % Ctrl
% Ctrl, KIT(L576P) (kinases [7]; target KIT(L576P); 1 μM): 69 % Ctrl
% Ctrl, EGFR(G719C) (kinases [8]; target EGFR(G719C); 1 μM): 100 % Ctrl

Cc1cc2c([nH]1)/C=C1\C(=O)Nc3ccc(cc31)-c1cnn(C)c1OCCCN(C)C2=O [Ex. 166, [3a(4)Z]-9,14-dimethyl-9,10,11,12-tetrahydro-14H-1,17-(ethanediylidene)pyrazolo[4,3-n]dipyrrolo[3,2-g:3′,4′-j][1,5]oxazacyclopentadecine-3,8(2H,5H)-dione]
% Ctrl, FLT3(R834Q) (kinases [1]; 1 μM; target FLT3(R834Q)): 2.1 % Ctrl
% Ctrl, ABL1-nonphosphorylated (kinases [2]; [15]): 4.1 % Ctrl
% Ctrl, ABL1-phosphorylated (kinases [2]; [16]): 3.6 % Ctrl
% Ctrl, RET(M918T) (kinases [3]; 1 μM; target RET(M918T)): 2.9 % Ctrl
% Ctrl, PDGFRA (kinases [4]; 1 μM; target PDGFRA): 50 % Ctrl
% Ctrl, ABL1(F317L)-nonphosphorylated (kinases [5]; [17]): 41 % Ctrl
% Ctrl, ABL1(F317L)-phosphorylated (kinases [5]; [18]): 8.7 % Ctrl
% Ctrl, ABL1(H396P)-nonphosphorylated (kinases [6]; [19]): 0.7 % Ctrl
% Ctrl, ABL1(H396P)-phosphorylated (kinases [6]; [20]): 4.3 % Ctrl
% Ctrl, KIT(L576P) (kinases [7]; 1 μM; target KIT(L576P)): 34 % Ctrl
% Ctrl, EGFR(G719C) (kinases [8]; 1 μM; target EGFR(G719C)): 98 % Ctrl
